# Source: publication PMC5473904, “Epigenetic and antitumor effects of platinum(IV)-octanoato conjugates” (Scientific Reports, 2017)
# Columns and labels:
# [1] = test system: A2780 human ovarian carcinoma cells; test: MTT cytotoxicity, 72 h; assay type: cell-based; conditions: Homo sapiens, A2780; MTT, 72 h, octanoic acid
# [2] = test system: PNT1a; test: MTT cytotoxicity, 72 h; assay type: cell-based; conditions: Homo sapiens, PNT1A, octanoic acid
# [3] = test system: HCT-116 human colorectal carcinoma cells; test: MTT cytotoxicity, 72 h; assay type: cell-based; conditions: Homo sapiens, HCT-116; MTT, 72 h, octanoic acid
# Procedure: (§1) Cytotoxic activity of the compounds tested in the present work was screened on the panel of malignant and nonmalignant cell lines using the colorimetric MTT assay and 72 h of drug incubation period.
# (§2) Cell death was evaluated using a system based on the tetrazolium compound MTT [3-(4,5-dimethyl-2-thiazolyl)-2,5-diphenyl-2H-tetrazolium bromide]. The cells were seeded in 96-well tissue culture plates at a density of 10^4 A2780cisR, LNCaP, HSF cells/well, 3 × 10^3 CHO-K1 or 4 × 10^3 MCF7, HCT-116 and MRC5 pd30 cells/well in 100 μL of medium. After overnight incubation (16 h), the cells were treated with the compounds in a final volume of 200 μL/well. After additional 72 h, 10 μL of a freshly diluted MTT solution (2.5 mg mL^−1) was added to each well, and the plate was incubated at 37 °C in a humidified 5% CO2 atmosphere for 4 h. At the end of the incubation period, the medium was removed, and the formazan product was dissolved in 100 μL of DMSO. The cell viability was evaluated by measurement of the absorbance at 570 nm, using an Absorbance Reader SUNRISE TECAN SCHOELLER. IC50 values were calculated from curves constructed by plotting cell survival (%) versus drug concentration (μM). All experiments were made in triplicate. The reading values were converted to the percentage of control (% cell survival). Cytotoxic effects were expressed as IC50.
# [4] = test system: A2780cisR human ovarian carcinoma cells; test: MTT cytotoxicity, 72 h; assay type: cell-based
# Procedure: as §1, §2
# [5] = test system: MCF-7 human breast cancer cells; test: MTT cytotoxicity, 72 h; assay type: cell-based; conditions: octanoic acid
# Procedure: as §1, §2
# [6] = test system: HSF human primary skin fibroblasts; test: MTT cytotoxicity, 72 h; assay type: cell-based; conditions: Homo sapiens, Skin fibroblast, octanoic acid
# Procedure: as §1, §2
# [7] = test system: LNCaP human prostate adenocarcinoma cells; test: MTT cytotoxicity, 72 h; assay type: cell-based; conditions: Homo sapiens, LNCaP, octanoic acid
# Procedure: as §1, §2
# [8] = test system: CHO-K1 Chinese hamster ovary cells; test: MTT cytotoxicity, 72 h; assay type: cell-based; conditions: Cricetulus griseus, CHO-K1, octanoic acid
# Procedure: as §1, §2
# [9] = test system: MRC-5 (PD30) human fetal lung fibroblasts; test: MTT cytotoxicity, 72 h; assay type: cell-based; conditions: Homo sapiens, MRC5, octanoic acid
# Procedure: as §1, §2
# [10] = test system: HDAC enzymes in HCT-116 cells; test: HDAC fluorimetric cellular activity assay; assay type: cell-based, human; conditions: 1 mM (1000-fold higher concentration)
# Procedure: These epigenetic processes consist in downregulation of HDACs and yet other biochemical processes triggered by VPA released in cells by the reduction of the Pt(IV) prodrug. Moreover, it has also been shown[15] that non-branched MCFAs may act as HDAC inhibitors. […] HDAC activity was analyzed in HCT-116 cells and confirmed by an independent set of experiments on A2780 cells (data not shown) by using a commercial HDAC fluorimetric cellular activity kit as described in the section Materials and methods.
# Figure 3 Activity of HDAC enzymes in HCT-116 cells treated with the compounds tested in the present work; their concentration was 1 µM except the concentration of free OA, which was 1 mM. […] The data represent a mean from three independent experiments, each performed in quadruplicate. The error bars are the SDs.
# The activity of HDAC enzymes was analyzed in HCT-116 cells treated with compounds tested in the present work (1 µM). […] The activity of HDAC was analyzed using the HDAC fluorimetric cellular activity assay kit (Enzo Life Sciences; Farmingdale, NY) in the whole cells according to manufacturer’s instructions. […] The plates were scanned on a fluorescence reader Infinite 200 (TECAN) (360 nm excitation, 460 nm emission).
# [11] = test system: DNMT enzymes in HCT-116 cells; test: DNMT activity in nuclear extracts of treated cells; assay type: cell-based, human; set-up: unit of the concentration uncertain; conditions: HCT-116, 1 (unit uncertain), 24 h
# Procedure: In these experiments, the total activity of DNMT enzymes was determined in nuclear extracts prepared from HCT-116 cells which were treated with the platinum compounds, free OA or decitabine for 24 h (Fig. 4B).
# Human colon carcinoma cells (HCT-116) were seeded in 100 mm culture dishes at the density 1.5 × 10^6 cells/dish. Cells were harvested after 24 h of incubation with the compounds tested in the present work (1 µM). Nuclear extracts from the pellets were separated using EpiQuik Nuclear extraction kit I (Epigentek, NY) according to manufacturer’s instructions. Quantification of nuclear proteins was analyzed with the standard Bradford assay. The activity of DNMT enzymes was analyzed using the EpiQuik DNMT activity/inhibition assay Ultra kit (Epigentek, NY), according to the manufacturer´s protocol. Briefly, 10 µg of total nuclear protein was analyzed for its DNMT activity. The reaction time with a universal DNMT substrate stably coated onto microplate wells was 120 min at 37 °C. The final signal at the end of the ELISA reaction was detected at 450 nm (reference 620 nm). DNMT activity was normalized to controls and expressed in the percent or absolute values as OD h^−1 mg^−1, calculated as described in the manufacturer’s manual.
# [12] = test system: DNA methylation in HCT-116 cells; test: DNA methylation analysis (Imprint methylated DNA quantification kit); assay type: cell-based, human; conditions: HCT-116, free OA at sufficiently high (milimolar) concentration
# Procedure: Human colon adenocarcinoma cells HCT-116 were chosen as the model cellular system suitable for DNA methylation analysis because: (i) this human colorectal cancer cell line has been used as a prototypic model for analyses of the genetic basis of cancer, and the role of epigenetic changes in tumorigenesis; (ii) they have a propensity to both global DNA hypomethylation and to silence genes through promoter focal hypermethylation, [21]. HCT-116 cells were treated with the compounds at the concentrations indicated in Fig. 4A for 24 or 72 h and DNA was isolated for the complete methylation analysis as described in the experimental section. Decitabine (5-aza-2′-deoxycytidine), a hypomethylating agent which hypomethylates DNA by inhibiting DNMT, was used in these experiments as a […]. The IC50 values found for this agent in HCT-116 cells (the drug-treatment period was 72 h) was (7.5 ± 0.3) µM (Table 1).
# Figure 4 Analysis of DNA methylation. (A) DNA was isolated from HCT-116 cells after the exposure to the agents at the concentrations indicated in the graph for 24 or 72 h. The levels of DNA methylation in the control was taken as 100%. The bars represent mean values from three independent experiments each performed in octuplicate. The error bars are the SDs. (B) DNMT activity in colon carcinoma cells HCT-116 treated for 24 h with the compounds tested in the present work. The DNMT activity in the control, untreated cells was taken as 100%. Error bars are the SDs and the stars at the top of bars denote a significant difference from the control with (*p < 0.05; **p < […]), calculated using […] student’s t-test. The bars represent mean values from three independent experiments, each performed in quadruplicate.
# Human colon carcinoma cells (HCT-116) were seeded at the density 1.5 × 10^6 cells/dish. […] The DNA content in each sample was determined by UV spectrophotometry. DNA (200 ng) from the samples was loaded to the Imprint methylated DNA quantification kit (Sigma-Aldrich, USA). The level of methylated DNA was proportional to the absorbance measured at 450 nm.
smiles,measurement,setting,value
"CCCCCCCC(=O)O [OA, octanoic acid, reference compound]",IC50,[1],1.46 ± 0.1 mM
same,IC50,[2],2.07 ± 0.03 mM
same,IC50,[3],3.84 ± 0.39 mM
same,IC50,"[4]; Homo sapiens, A2780cisR, MTT, 72 h, octanoic acid",0.76 ± 0.02 mM
same,"RF, resistance factor","[4]; IC50 (resistant, A2780cisR)/IC50 (sensitive, A2780)",0.5
same,IC50,"[5]; Homo sapiens, MCF7, 72 h",16 mM
same,IC50,[5],16.2 ± 0.56 mM
same,IC50,[6],9.74 ± 0.03 mM
same,IC50,[7],0.71 ± 0.12 mM
same,IC50,[8],5.9 ± 0.7 mM
same,IC50,[9],7.67 ± 0.61 mM
same,Efficiency to inhibit HDAC activity,[10],moderate inhibitory effect
same,Activity of DNMT enzymes,[11],enhanced activity of DNMT enzymes
same,Change of DNA methylation,[12],capable of inducing DNA hypermethylation
